The values that follow are results of earlier work, collected in paper PMC6764291 (Frontiers in Oncology, 2019).

One data set concerns p53. The arrangement: method as in PMID 14704432. The note with it: cited from earlier work.
The subject of the next data set is mutant p53 cells. Particulars: in vitro, considerably higher concentrations than required for wt p53 cell lines; cited from earlier work. From the text:
As expected, the two p53 mutated cell lines did n ...

Each structure is given as a SMILES string.

For the compound `COc1ccc(C2=N[C@@H](c3ccc(Cl)cc3)[C@@H](c3ccc(Cl)cc3)N2C(=O)N2CCNC(=O)C2)c(OC(C)C)c1` [Nutlin-3], in the data set with p53, the p53-expression result is on record as “increased p53-expression was directly correlated to increasing concentrations”.
For `COc1ccc(C2=N[C@H](c3ccc(Cl)cc3)[C@H](c3ccc(Cl)cc3)N2C(=O)N2CCN(C(C)=O)CC2)c(OC(C)C)c1` [Nutlin-1], the “effect on mutant p53 cells” value in the data set on mutant p53 cells is given as “Some effect”.
